Measurements published in a melting point compilation (Tetko et al.; mined from patent text by program, amines drawn as free bases though some values may be those of a salt).

`Cc1cc(OCc2ccccc2)cc(C)c1NC(=O)CN1CCN2C(C1)C(=O)NC2(C)C` (centres undefined) gave a melting point of 224 °C. In the case of `CNc1nc(-c2ccccc2)ccc1[N+](=O)[O-]`, the melting point is reported as 98 to 99 °C. With `O=C(O)CCNC(=O)NCCCCC1CCSS1` (centres undefined) the melting point was 108 to 110 °C. Molecule `COC(=O)c1cc(F)c(-n2c(=O)[nH]n(C)c2=O)cc1F` has a melting point of 156 °C. For `Cc1cccc(C(=O)c2[nH]c3cc(Cl)ccc3c2CC(=O)O)n1`, the melting point was 230 to 231 °C. In the case of `CC(=O)NC(C(=O)Nc1ccc(C(=O)OCc2ccccc2)cc1)c1ccc2c(c1)C(C)(C)CCC2(C)C` (centres undefined), the melting point is reported as 258 to 259 °C. `CC1(C)OC(C(F)(F)F)Nc2ccc(-c3cccc(Cl)c3)cc21` (centres undefined) gave a melting point of 108 to 109 °C. `Cn1ncc2c1CC(C)(C)c1cnn(C)c1-2` gave a melting point of 105 to 108 °C. Molecule `CC(C)(C)c1cc2c(c(C(C)(C)C)c1O)CC1(CCSCC1)O2` has a melting point of 209 °C. For `COC(=O)CCc1cnoc1-c1ccc([N+](=O)[O-])cc1`, the melting point was 118 to 119 °C. Work on `COc1ccc(C(=O)CSc2cccc(OC)c2)cc1` yielded a melting point of 53 to 54 °C. In the case of `CC(C)(C)OC(=O)n1cc(C(=O)C2CSC(c3cccnc3)N2C(=O)C=O)c2ccccc21` (centres undefined), the melting point is reported as 125 to 130 °C. Molecule `CC(C)CCC(O)C(CC1CCCCC1)NC(=O)C(Cc1c[nH]cn1)N(C)C(=O)C(Cc1ccccc1)OC(=O)N(C)CCN(C)C(=O)N1CCOCC1` (centres undefined) has a melting point of 69 to 74 °C. `CC(C)C[C@H](NC(=O)CCS)C(=O)O` gave a melting point of 131 to 132 °C. For `Fc1cccc(Nc2nc(Cl)nc(Cl)n2)c1`, the melting point was 143 °C. Molecule `Nc1nc2ccccc2c2c1nc(-c1ccccc1)n2OCc1ccccc1` has a melting point of 177 to 179 °C. For `CCN1CC(CCCl)N(C)c2ccccc2C1=O` (centres undefined), the melting point was 75 to 79 °C. `CCNC(=O)Nc1nc2cc(-c3cncnc3)cc(C(=O)NCC)n2n1` gave a melting point of 317 to 321 °C. `CCNCC1CCN(c2c(F)cc3c(=O)c(C(=O)O)cn(C4CC4C)c3c2F)C1` (centres undefined) gave a melting point of 225 to 228 °C. `CN1C(=O)C(=O)NCC1(CCO)c1ccc(Cl)c(Cl)c1` (centres undefined) gave a melting point of 260 °C. `Cc1ccc(-c2c(C)c3cc(O)ccc3n2Cc2ccc(OCCN3CCCCC3)cc2)cc1` gave a melting point of 162 to 164 °C. Molecule `CCOc1c(C)c(C)c2c(c1C)CCC(C)(COc1ccc(N)cc1)O2` (centres undefined) has a melting point of 121 to 123 °C. `O=C(NCc1ccc(Cl)cc1)c1cn(CCCN2CCCCC2)c2ccc(C#CCO)cc2c1=O` gave a melting point of 160 to 163 °C. In the case of `CCOc1ccc(C=CC(=O)OC)cc1`, the melting point is reported as 68 to 70 °C. `CCC(Oc1ccc(CCC(=O)c2ccc(-c3ccc(C(F)(F)F)cc3)s2)cc1)C(=O)O` (centres undefined) showed a melting point of 116 to 117 °C. For `CC(C)(CC(O)(Cn1ccc2c1CCCC2=O)C(F)(F)F)c1cc(-c2cncnc2)cc2c1OCC2` (centres undefined), the melting point was 213 to 214 °C. Work on `COC(=O)c1c(Cl)cccc1S(N)(=O)=O` yielded a melting point of 144 to 149 °C. With `CC(C)n1nc(-c2nc(C(N)=O)c(N)nc2Cl)ccc1=O` the melting point was > 250 °C. Work on `COC(=O)C1=C(C)NC(C)=C(C(=O)OCCN2CCN(S(=O)(=O)c3ccc(Cl)cc3)CC2)C1c1cccc([N+](=O)[O-])c1` (centres undefined) yielded a melting point of 97 to 105 °C. `CN(O)CCCCc1ccc2c(c1)C(=O)c1sccc1CO2` gave a melting point of 107 to 108 °C. In the case of `COc1cc(OCC(CO)CO)c(C=CC(=O)c2ccc(C(=O)O)cc2)cc1-c1cccs1`, the melting point is reported as 219 to 220 °C. Work on `CCNC(=O)CC1CN=C(c2cc3cc(Oc4ccc(COC)nc4)cc(OC)c3[nH]2)S1` (centres undefined) yielded a melting point of 130 to 132 °C. `CN(C(=O)CCNC#N)c1nnc(-c2cccnc2)s1` showed a melting point of 155 to 159 °C. With `O=C(O)c1ccc(OCCN2CCOCC2)cc1` the melting point was 112 to 114 °C. `CC(C)(C)n1c(=O)n(-c2ccnc(NC(=O)NCc3ccccn3)c2)c2ccccc21` gave a melting point of 164 to 165 °C. In the case of `CNS(=O)(=O)c1cc(Cl)sc1C(=O)O`, the melting point is reported as 103 to 104 °C. In the case of `O=C(O)c1ccc(S(=O)(=O)n2c(=O)[nH]c3cc(Cl)ccc3c2=O)cc1`, the melting point is reported as > 200 °C. `O=C(O)Cc1ccc(OCc2ccc(Cl)cc2C(=O)O)cc1` showed a melting point of 205 to 208 °C. Work on `COc1ccc(S(=O)(=O)C2(C(=O)NO)CCN(Cc3ccc(OCCN4CCCCC4)cc3)CC2)cc1` yielded a melting point of 114 °C.
